Assay: gradient 5% acetonitrile 3 min, to 50% in 2 min, to 85% in 15 min, held 3 min, 100 µL/min
Conditions: column: Zorbax Extend-C18 2.1 x 50 mm; eluents: water / acetonitrile, 0.1% formic acid
In short: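 Over 3 months, pure standards in mixtures of ~100 molecules were run by HPLC coupled to a quadrupole time-of-flight mass spectrometer in positive and negative ionization mode. The column was a Zorbax Extend-C18 (2.1 × 50 mm, 1.8 μm) at 100 μL/min, eluted with water and acetonitrile each holding 0.1% formic acid, with 40 μL dead and 900 μL dwell volumes. Retention time was determined from adduct peaks chosen by software and checked manually.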

RP-LC retention time [s] | Structure (SMILES)
797 | CCn1nc(C)c(S(=O)(=O)N2CCN(C(=O)C3(c4ccc(OC)cc4)CC3)CC2)c1C
758 | CCCn1cc(C(=O)NCCCN(C)C)c(S(=O)(=O)N2CCN(c3cccc(Cl)c3)CC2)n1
710 | CCCNC(=O)C1CCCN(c2ccc(SCC(=O)Nc3ccc(Br)cc3)nn2)C1 (stereo not drawn)
630 | COc1nn(C)cc1C(=O)Nc1cc(-c2cccs2)nn1CCO
605 | O=C(c1ccnc(-c2cccs2)c1)N1CCN(c2ccccn2)CC1
1310 | Cc1ccccc1CNC(=O)C1(C)CCN(S(=O)(=O)c2ccc(C3CCCCC3)cc2)CC1
652 | Cc1c(NC(=O)c2ccc([N+](=O)[O-])cc2Cl)c(=O)n(-c2ccccc2)n1C
898 | O=C(c1cnn(-c2ccccc2)n1)N1CCN(C(=O)C2CC2c2ccc(F)cc2)CC1 (stereo not drawn)
809 | CCc1ccc(N2C(=O)CN(S(C)(=O)=O)CC2(C)C(=O)NCc2ccccc2)cc1 (stereo not drawn)
697 | CCOc1ccccc1NC(=O)C(=O)NCc1cc(C)oc1C
746 | Cc1noc(-c2ccc(N3CCCC(C(=O)NC(C)c4ccco4)C3)nc2)n1 (stereo not drawn)
730 | COc1ccc(OC)c(CNC(=O)c2cn3cccc(C)c3n2)c1
685 | CCN1CCCC1CNC(=O)CCc1nc(-c2ccc(N3CCCC3)cc2)no1 (stereo not drawn)
570 | COC[C@@H]1CN(S(=O)(=O)c2c(C)noc2C)C[C@H]1c1ccncc1
580 | NC(=O)C1CCN(C(=O)CN2CCN(c3ccccc3F)CC2)CC1
738 | Cc1nn(C)cc1CN(C)C(=O)c1ccc(-c2ccccc2)cc1
734 | CCSc1nnc(-c2nn(C)c3c2CN(C(=O)c2ccccc2C)CC3)n1C
1080 | O=C(CN1C(=O)C(C(=O)N2CCCC2)Sc2ccccc21)Nc1cccc(Cl)c1 (stereo not drawn)
751 | O=C(NCc1cccs1)C1CCN(c2cnc(N3CCSCC3)nc2)CC1
852 | O=C(c1cccc(Br)c1)N1CCN(c2cc(-c3ccccc3)[nH]n2)CC1
857 | Cc1ccccc1C(=O)NCc1nn(C)c2ccccc12
701 | Cc1ccc(NC(=O)Cn2cnc3nc(N4CCCC(C(=O)NC(C)C)C4)sc3c2=O)c(F)c1 (stereo not drawn)
669 | COc1ccc(S(=O)(=O)N2C[C@@H](F)C[C@H]2C(=O)N2CCOCC2)cc1
766 | CCn1nc(CNC(=O)Cc2cccs2)c2ccccc21
945 | CC(C)(C)c1cccc(NC(=O)C2CCc3nc(N4CCOCC4)ncc3C2)c1 (stereo not drawn)
775 | COc1cccc(N2CCN(C(=O)Cn3ccc4c(SCc5ccccc5)nccc43)CC2)c1

RP-LC retention time [s] | Structure (SMILES)
687 | O=C(CSc1ccc(N2CCCC(C(=O)NC3CC3)C2)nn1)Nc1cccc(C(F)(F)F)c1 (stereo not drawn)
678 | CN(C)C(=O)c1ccc2c(c1)nnn2CCNC(=O)Nc1cccc(Br)c1
835 | O=C1COc2ccc(S(=O)(=O)N3CCCC3C(=O)Nc3cccc(Cl)c3)cc2N1 (stereo not drawn)
693 | COc1ccc(NC(=O)C2CCCN(c3cnc4nccnc4c3)C2)c(C)c1 (stereo not drawn)
757 | CCN1C(=O)CCc2cc(NC(=O)Cc3cccc(OC)c3)ccc21
713 | O=C(NC1CC1)C1CCN(C(=O)c2ncn3c2COC(c2ccc(Cl)cc2)C3)CC1 (stereo not drawn)
1100 | COc1ccc(-c2ncc3c(n2)CCN(S(=O)(=O)c2ccc(F)c(C)c2)C3)cc1
915 | Cc1nc(Cn2cccc2C(=O)Nc2cc(Cl)ccc2C)no1
814 | Cc1cc2c(cc1S(=O)(=O)N1CCCC1C(=O)N1CCN(c3ccccc3)CC1)OC(C)C(=O)N2 (stereo not drawn)
584 | CCOc1cc(=O)n2c(c1C(=O)Nc1ccc(C(N)=O)cc1)CCCC2
818 | CCc1cccc(NC(=O)C2CCCN(C(=O)C3Sc4ccccc4NC3=O)C2)c1 (stereo not drawn)
678 | Cc1cccc(C)c1NC(=O)Cn1cnc2nc(N3CCCC(C(=O)NC4CC4)C3)sc2c1=O (stereo not drawn)
792 | O=C(NCCn1nnc2cc(C(=O)N3CCCC3)ccc21)Nc1ccc(Cl)cc1
866 | CSc1cccc(NC(=O)C2CCCN(c3ncnc4c3nc3n4CCCCC3)C2)c1 (stereo not drawn)
912 | Cc1nn(-c2ccccc2)c(C)c1S(=O)(=O)N1CCC(C(=O)NC2CCCCC2)CC1
900 | CCc1cccc(C)c1NC(=O)C1Cc2cc(S(=O)(=O)N3CCCCC3)ccc2N1C(C)=O (stereo not drawn)
591 | CCOCCCNC(=O)N1CCOc2ccc(CN(CC)CC)cc2C1
712 | COc1ccc(NC(=O)Cn2nc(C(=O)N3CCOCC3)c3ccccc32)cc1
893 | COc1ccc(NS(=O)(=O)c2cc3c(s2)CCN(C(=O)C2CCC2)C3)cc1Cl
660 | CCc1nc(-c2csc(S(=O)(=O)N3CCCC(C(=O)NCc4cccnc4)C3)c2)no1 (stereo not drawn)
648 | Cc1ccc(-n2ncc3c(NCCN(C)C)ncnc32)cc1C
801 | COC(=O)c1ncn2c1C(=O)N(Cc1cccc(C)c1)C(C)(C(=O)NCc1ccc(C)cc1)C2 (stereo not drawn)
652 | COc1ccc2c(c1)CC(NC(=O)N1CCN(Cc3ccc4c(c3)OCO4)CC1)CO2 (stereo not drawn)
606 | Cc1cc(N2CCN(C)CC2)nc2ccc(NC(=S)N3CCN(c4ccc(F)cc4)CC3)cc12
614 | COc1ccc(-c2cc3n(n2)CCCN(C(=O)c2ccc4nc[nH]c4c2)C3)cc1

Second part, the compound before the results:

Structure (SMILES) | RP-LC retention time [s]
COc1ccc(-c2csc(NC(=O)CCn3c(=O)sc4ccccc43)n2)cc1 | 982
O=c1ccc(-c2nc(-c3ccc(F)cc3)no2)nn1Cc1cccc(F)c1 | 1090
COc1ccc(CN2C=C(C(=O)OCc3cc(=O)n4ccccc4n3)C(C)=NS2(=O)=O)cc1 | 1130
C[C@H]1CN(C(=O)COc2ccc(F)cc2)C[C@@H]1c1nc(-c2ccncc2)no1 | 793
Cc1cc(C(=O)OCC(=O)c2cccc([N+](=O)[O-])c2)c2ccccc2n1 | 804
O=C(Cn1nc2c3cc(F)ccc3ncn2c1=O)Nc1ccc(Cl)cc1 | 744
COc1ccc(N2C(=O)CC(c3ccc(OC)c(OC)c3)CC2=O)cc1 | 780
CCOc1ccc(C(=O)N2CCC3(CC2)NCc2ccccc2-n2ccnc23)cc1 | 619
CCCN(CCc1cccs1)C1CCc2c(O)cccc2C1 (stereo not drawn) | 757
CCC(C)NS(=O)(=O)c1c(C)nn(-c2ccc(-c3ccc(C)cc3)nn2)c1C (stereo not drawn) | 1040
CCn1cc(C(=O)NCc2cccc(Br)c2)c2cccnc21 | 854
CC1CCN(c2ncc3c(n2)CCC(C(=O)NCCc2cccnc2)C3)CC1 (stereo not drawn) | 598
O=C1C(c2cccnc2)N(c2ccc3c(c2)OCCO3)C(=O)CN1c1ccccc1 (stereo not drawn) | 644
Cc1ccc(CNC(=O)c2ccc3c(c2)N(C)C(=O)c2ccccc2O3)cc1 | 931
O=C(NCC1CCN(C(=O)COc2ccccc2)CC1)Nc1cccc(C(F)(F)F)c1 | 840
CSCC[C@H](NC(=O)C(C)Oc1cc(C)cc2oc(=O)c3c(c12)CCCC3)C(=O)O (stereo partly drawn) | 860
Cc1nc2ccccc2nc1SCC(=O)c1ccccc1 | 970
Cc1nc(CSc2nc3cc([N+](=O)[O-])ccc3s2)cs1 | 916
O=C(CNC(=O)C1COc2ccccc2O1)NCCc1c[nH]c2ccccc12 (stereo not drawn) | 780

Structure (SMILES) | RP-LC retention time [s]
Cn1nc(-c2nnc(-c3ccc(F)cc3)o2)c2c1CCN(S(=O)(=O)c1ccc(C(C)(C)C)cc1)C2 | 1180
Cc1ccc(-c2ccc3nn(CC(=O)Nc4ccc(C)cc4Br)c(=O)n3n2)cc1 | 960
CC(C)n1c(=O)c2ccccc2n(Cc2nc(-c3ccc(F)cc3)no2)c1=O | 1110
CCc1nc2cc(-c3noc(-c4cc5ccccc5oc4=O)n3)ccc2o1 | 1010
Cc1cc(C)n(Cc2nc(-c3ccc(NC(=O)c4ccc(C#N)cc4)cc3)oc2C)n1 | 870
CN(C)c1cccc(-c2nc(C3CC(=O)N(c4ccc(Cl)cc4)C3)no2)c1 (stereo not drawn) | 1110
CCc1nc2cc(-c3noc(Cc4ccc(OC)cc4)n3)ccc2o1 | 1030
COc1ccccc1-n1ccn2cc(-c3ccc(F)cc3)nc2c1=O | 783
CC(C)Oc1ccc(C(=O)O)cc1 | 823
CCN1C(=O)c2cccnc2Sc2cc(NC(=O)C3(c4ccccc4)CC3)ccc21 | 937
CN(C)CC1(O)CCC2(CCN(C(=O)c3cccn3C)CC2)CC1 | 577
CN(C)CC(=O)N1CCC(Oc2nccnc2N2CCOCC2)C1 (stereo not drawn) | 561
Cc1nccn1Cc1nc(-c2ccc(F)c(Cl)c2)no1 | 654
CN1CCC(c2c[nH]c3ccccc23)C1 (stereo not drawn) | 648
O=C(NC1CC1)c1ccc(N2CCC(NCc3ccc(Br)cc3)C2)nc1 (stereo not drawn) | 572
Cc1sc(NC(=O)CCCC(=O)O)nc1-c1ccccc1 | 752
Cc1[nH]nc(-c2c(C)sc(C)c2S(=O)(=O)NCC(C)c2ccccc2)c1C (stereo not drawn) | 1090
COc1cccc(-n2c(=O)c(C(=O)Nc3ccc(F)cc3)c(O)c3cccnc32)c1 | 1210
